Results: patent US20260250290A1 (BRISTOL-MYERS SQUIBB COMPANY, priority 2023, published 2026)

Target: T1, full length SGK1 (Homo sapiens, UniProt O00141)
T1 construct: 125 μM full length SGK1 (Life Technologies Part #PR7358A); purchased Life Technologies PR7358A
T1 sequence (O00141 1-431): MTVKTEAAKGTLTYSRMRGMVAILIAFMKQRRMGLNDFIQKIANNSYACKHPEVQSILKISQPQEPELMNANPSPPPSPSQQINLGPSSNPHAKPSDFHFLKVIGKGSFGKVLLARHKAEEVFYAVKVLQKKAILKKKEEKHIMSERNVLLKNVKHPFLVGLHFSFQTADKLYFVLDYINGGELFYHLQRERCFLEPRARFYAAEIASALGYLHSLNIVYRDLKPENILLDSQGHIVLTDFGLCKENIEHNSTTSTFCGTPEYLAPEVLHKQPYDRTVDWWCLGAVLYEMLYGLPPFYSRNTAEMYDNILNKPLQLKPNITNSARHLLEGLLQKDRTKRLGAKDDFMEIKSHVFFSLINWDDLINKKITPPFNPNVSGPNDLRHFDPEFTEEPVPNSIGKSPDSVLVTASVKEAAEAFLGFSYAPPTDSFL
Experiment: SGK1 inhibition Assay A (Caliper LabChip electrophoretic separation of fluorescent peptide substrate and phosphorylated product)
Assay type: biochemical
Conditions: Assay A; 20 μM ATP, 40 min incubation; read-out: SGK1 IC50

Row | Compound | IC50 [nM]
1 | CN(C)CCOc1c(C(=O)N[C@@H]2CCCN(c3cc(-c4ccc(C#N)nc4)n4ncnc(N)c34)C2)[nH]c2ccccc12 [Example 367, (R)-N-(1-(4-amino-7-(6-cyanopyridin-3-yl)pyrrolo[2,1-f][1,2,4]triazin-5-yl)piperidin-3-yl)-3-(2-(dimethylamino)ethoxy)-1H-indole-2-carboxamide] | 41
2 | CN(C)CCOc1c(C(=O)N[C@@H]2CCCN(c3cc(-c4ccc(C#N)c(F)c4)n4ncnc(N)c34)C2)[nH]c2ccccc12 [Example 368, (R)-N-(1-(4-amino-7-(4-cyano-3-fluorophenyl)pyrrolo[2,1-f][1,2,4]triazin-5-yl)piperidin-3-yl)-3-(2-(dimethylamino)ethoxy)-1H-indole-2-carboxamide] | 36
3 | CC(C)Cn1cc(-c2cc(N3CCC[C@@H](NC(=O)c4[nH]c5ccccc5c4OCCN(C)C)C3)c3c(N)ncnn23)ccc1=O [Example 369, (R)-N-(1-(4-amino-7-(1-isobutyl-6-oxo-1,6-dihydropyridin-3-yl)pyrrolo[2,1-f][1,2,4]triazin-5-yl)piperidin-3-yl)-3-(2-(dimethylamino)ethoxy)-1H-indole-2-carboxamide] | 196
4 | CC(=O)N1CC=C(c2cc(N3CCC[C@@H](NC(=O)c4sc(C5CC5)cc4OCCN(C)C)C3)c3c(N)ncnn23)C1 [Example 370, (R)—N-(1-(7-(1-acetyl-2,5-dihydro-1H-pyrrol-3-yl)-4-aminopyrrolo[2,1-f][1,2,4]triazin-5-yl)piperidin-3-yl)-5-cyclopropyl-3-(2-(dimethylamino)ethoxy)thiophene-2-carboxamide] | 18
5 | COC(=O)N1CC=C(c2cc(N3CCC[C@@H](NC(=O)c4sc(C5CC5)cc4OCCN(C)C)C3)c3c(N)ncnn23)C1 [Example 371, Methyl (R)-3-(4-amino-5-(3-(5-cyclopropyl-3-(2-(dimethylamino)ethoxy)thiophene-2-carboxamido)piperidin-1-yl)pyrrolo[2,1-f][1,2,4]triazin-7-yl)-2,5-dihydro-1H-pyrrole-1-carboxylate] | 1
6 | CN(C)CCOc1cc(C2CC2)sc1C(=O)N[C@@H]1CCCN(c2cc(-c3ccc(C#N)nc3)n3ncnc(N)c23)C1 [Example 372, (R)-N-(1-(4-amino-7-(6-cyanopyridin-3-yl)pyrrolo[2,1-f][1,2,4]triazin-5-yl)piperidin-3-yl)-5-cyclopropyl-3-(2-(dimethylamino)ethoxy) thiophene-2-carboxamide] | 2
7 | CN(C)CCOc1cc(C2CC2)sc1C(=O)N[C@@H]1CCCN(c2cc(-c3ccc(C(N)=O)c(F)c3)n3ncnc(N)c23)C1 [Example 373, (R)-N-(1-(4-amino-7-(4-carbamoyl-3-fluorophenyl)pyrrolo[2,1-f][1,2,4]triazin-5-yl)piperidin-3-yl)-5-cyclopropyl-3-(2-(dimethylamino)ethoxy) thiophene-2-carboxamide] | 2
8 | CN(C)CCOc1cc(C2CC2)sc1C(=O)N[C@@H]1CCCN(c2cc(-c3cncnc3)n3ncnc(N)c23)C1 [Example 374, (R)-N-(1-(4-amino-7-(pyrimidin-5-yl)pyrrolo[2,1-f][1,2,4]triazin-5-yl)piperidin-3-yl)-5-cyclopropyl-3-(2-(dimethylamino)ethoxy) thiophene-2-carboxamide] | 111
9 | CN(C)CCOc1cc(C2CC2)sc1C(=O)N[C@@H]1CCCN(c2cc(-c3ccc(=O)n(CC(F)F)c3)n3ncnc(N)c23)C1 [Example 375, (R)-N-(1-(4-amino-7-(1-(2,2-difluoroethyl)-6-oxo-1,6-dihydropyridin-3-yl)pyrrolo[2,1-f] [1,2,4]triazin-5-yl)piperidin-3-yl)-5-cyclopropyl-3-(2-(dimethylamino)ethoxy)thiophene-2-carboxamide] | 21
10 | CC(=O)N1CC=C(c2cc(N3CCC[C@@H](NC(=O)c4sc(C5CC5)cc4OC4CCN(C)CC4)C3)c3c(N)ncnn23)C1 [Example 376, (R)—N-(1-(7-(1-acetyl-2,5-dihydro-1H-pyrrol-3-yl)-4-aminopyrrolo[2,1-f][1,2,4]triazin-5-yl)piperidin-3-yl)-5-cyclopropyl-3-((1-methylpiperidin-4-yl)oxy)thiophene-2-carboxamide] | 7
11 | CC(=O)N1CC=C(c2cc(N3CCC[C@@H](NC(=O)c4sc(C5CC5)cc4OC4CCNCC4)C3)c3c(N)ncnn23)C1 [Example 376E, (R)—N-(1-(7-(1-acetyl-2,5-dihydro-1H-pyrrol-3-yl)-4-aminopyrrolo[2,1-f][1,2,4]triazin-5-yl)piperidin-3-yl)-5-cyclopropyl-3-(piperidin-4-yloxy)thiophene-2-carboxamide] | 3
12 | CC(=O)N1CC=C(c2cc(N3CCC[C@@H](NC(=O)c4sc(C5CC5)cc4OC4CCN(C(C)C)CC4)C3)c3c(N)ncnn23)C1 [Example 377, (R)-N-(1-(7-(1-acetyl-2,5-dihydro-1H-pyrrol-3-yl)-4-aminopyrrolo[2,1-f][1,2,4]triazin-5-yl)piperidin-3-yl)-5-cyclopropyl-3-((1-isopropylpiperidin-4-yl)oxy)thiophene-2-carboxamide] | 35
13 | CC(=O)N1CC=C(c2cc(N3CCC[C@@H](NC(=O)c4sc(C5CC5)cc4OC4CCN(C5CC5)CC4)C3)c3c(N)ncnn23)C1 [Example 378, (R)-N-(1-(7-(1-acetyl-2,5-dihydro-1H-pyrrol-3-yl)-4-aminopyrrolo[2,1-f][1,2,4]triazin-5-yl)piperidin-3-yl)-5-cyclopropyl-3-((1-cyclopropylpiperidin-4-yl)oxy)thiophene-2-carboxamide] | 43
14 | COC(=O)N1CC=C(c2cc(N3CCC[C@@H](NC(=O)c4sc(C5CC5)cc4OC4CCNCC4)C3)c3c(N)ncnn23)C1 [Example 379, Methyl (R)-3-(4-amino-5-(3-(5-cyclopropyl-3-(piperidin-4-yloxy)thiophene-2-carboxamido)piperidin-1-yl)pyrrolo[2,1-f][1,2,4]triazin-7-yl)-2,5-dihydro-1H-pyrrole-1-carboxylate] | 3
15 | NC(=O)c1ccc(-c2cc(N3CCC[C@@H](NC(=O)c4sc(C5CC5)cc4OC4CCNCC4)C3)c3c(N)ncnn23)cc1F [Example 380, (R)-N-(1-(4-amino-7-(4-carbamoyl-3-fluorophenyl)pyrrolo[2,1-f][1,2,4]triazin-5-yl)piperidin-3-yl)-5-cyclopropyl-3-(piperidin-4-yloxy)thiophene-2-carboxamide] | 1
16 | CN1CCC(Oc2cc(C3CC3)sc2C(=O)N[C@@H]2CCCN(c3cc(-c4ccc(C#N)nc4)n4ncnc(N)c34)C2)CC1 [Example 381, (R)-N-(1-(4-amino-7-(6-cyanopyridin-3-yl)pyrrolo[2,1-f][1,2,4]triazin-5-yl)piperidin-3-yl)-5-cyclopropyl-3-((1-methylpiperidin-4-yl)oxy)thiophene-2-carboxamide] | 6
17 | CC(C)N1CCC(Oc2cc(C3CC3)sc2C(=O)N[C@@H]2CCCN(c3cc(-c4ccc(C#N)nc4)n4ncnc(N)c34)C2)CC1 [Example 382, (R)-N-(1-(4-amino-7-(6-cyanopyridin-3-yl)pyrrolo[2,1-f][1,2,4]triazin-5-yl)piperidin-3-yl)-5-cyclopropyl-3-((1-isopropylpiperidin-4-yl)oxy)thiophene-2-carboxamide] | 5
18 | N#Cc1ccc(-c2cc(N3CCC[C@@H](NC(=O)c4sc(Cl)cc4OC4CN(CC(F)F)C4)C3)c3c(N)ncnn23)cn1 [Example 383, (R)—N-(1-(4-amino-7-(6-cyanopyridin-3-yl)pyrrolo[2,1-f][1,2,4]triazin-5-yl)piperidin-3-yl)-5-chloro-3-((1-(2,2-difluoroethyl)azetidin-3-yl)oxy)thiophene-2-carboxamide] | 25
19 | CC(=O)N1CC=C(c2cc(N3CCC[C@@H](NC(=O)c4sc(Cl)cc4OC4CN(CC(F)F)C4)C3)c3c(N)ncnn23)C1 [Example 384, (R)-N-(1-(7-(1-acetyl-2,5-dihydro-1H-pyrrol-3-yl)-4-aminopyrrolo[2,1-f][1,2,4]triazin-5-yl)piperidin-3-yl)-5-chloro-3-((1-(2,2-difluoroethyl)azetidin-3-yl)oxy)thiophene-2-carboxamide] | 57
20 | COC(=O)N1CC=C(c2cc(N3CCC[C@@H](NC(=O)c4sc(Cl)cc4OC4CN(CC(F)F)C4)C3)c3c(N)ncnn23)C1 [Example 385, Methyl (R)-3-(4-amino-5-(3-(5-chloro-3-((1-(2,2-difluoroethyl)azetidin-3-yl)oxy)thiophene-2-carboxamido)piperidin-1-yl)pyrrolo[2,1-f][1,2,4]triazin-7-yl)-2,5-dihydro-1H-pyrrole-1-carboxylate] | 21
21 | NC(=O)c1ccc(-c2cc(N3CCC[C@@H](NC(=O)c4sc(Cl)cc4OC4CN(CC(F)F)C4)C3)c3c(N)ncnn23)cc1F [Example 386, (R)-N-(1-(4-amino-7-(4-carbamoyl-3-fluorophenyl)pyrrolo[2,1-f][1,2,4]triazin-5-yl)piperidin-3-vl)-5-chloro-3-((1-(2,2-difluoroethyl)azetidin-3-yl)oxy)thiophene-2-carboxamide] | 6
22 | Nc1ncnn2c(-c3ccc(=O)n(CC(F)F)c3)cc(N3CCC[C@@H](NC(=O)c4sc(Cl)cc4OC4CN(CC(F)F)C4)C3)c12 [Example 387, (R)-N-(1-(4-amino-7-(1-(2,2-difluoroethyl)-6-oxo-1,6-dihydropyridin-3-yl)pyrrolo[2,1-f][1,2,4]triazin-5-yl)piperidin-3-yl)-5-chloro-3-((1-(2,2-difluoroethyl)azetidin-3-yl)oxy)thiophene-2-carboxamide] | 29
